Data from patent publication US20160106102A1, “KNOWN AND NEW HETEROCYCLIC COMPOUNDS AS PEST CONTROL AGENTS” (BAYER CROPSCIENCE AKTIENGESELLSCHAFT, priority 2013, published 2016).
Like-named read-outs stand apart in the source and are kept apart here.

How the values were obtained:
[1] = system: Myzus persicae; test: Myzus persicae - spray test; format: in vivo; conditions: application rate of 500 g/ha, after 6 days, sprayed Chinese cabbage leaf discs infested by all stages, 100% = all aphids killed; for pest or weed control at 500 g/ha: Myzus persicae, foliar, 144 h, read-out: efficacy in %
Procedure: Myzus persicae—spray test Solvent: 78 parts by weight of acetone • • 1.5 parts by weight of dimethylformamide Emulsifier: 0.5 part by weight of alkylaryl polyglycol ether To produce an appropriate active ingredient formulation, 1 part by weight of active ingredient is mixed with the specified amounts of solvent and emulsifier, and the concentrate is diluted to the desired concentration with emulsifier-containing water. Discs of Chinese cabbage leaves (Brassica pekinensis) infested by all stages of the green peach aphid (Myzus persicae) are sprayed with an active ingredient formulation of the desired concentration. After 6 days, the efficacy in % is determined. 100% means that all the aphids have been killed; 0% means that no aphids have been killed.

[2] = system: Myzus persicae; test: Myzus persicae - sachet test; format: in vivo; conditions: 100% = all animals killed; for pest or weed control at 6 ppm / pest or weed control at 30 ppm: Myzus persicae, read-out: efficacy (kill in %)
How it was run: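 Active ingredient dissolved with 2% N-methylpyrrolidone and 2% diacetone alcohol, diluted in water, then pipetted into nutrient medium. Plate sealed and paired with a plate carrying green peach aphids. Kill in % scored after the set time (100% = all dead, 0% = none dead).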

[3] = log P determination by LC-MS in the acidic range; format: physicochemical
Description: The LC-MS determination in the acidic range is effected at pH 2.7 using 0.1% aqueous formic acid and acetonitrile (contains 0.1% formic acid) as eluents, linear gradient from 10% acetonitrile to 95% acetonitrile. Alternatively, the determination is effected in the acidic range at pH 2.3 using 0.1% aqueous phosphoric acid and acetonitrile as eluents; linear gradient from 10% acetonitrile to 95% acetonitrile.

[4] = application rate of 6 ppm in nutrient medium
[5] = application rate of 30 ppm in nutrient medium
[6] = Table 3, HPLC on reversed-phase column (C 18), 55° C., acidic range (pH 2.7 or pH 2.3)
[7] = reversed-phase HPLC column (C18), pH 2.7, values given in the synthesis examples and NMR lists, read-out: HPLC-MS: log P
[8] = Table 4, HPLC on reversed-phase column (C 18), 55° C., acidic range (pH 2.7 or pH 2.3)

Cc1cc(NC(=O)c2cccnc2)nn1Cc1ncccn1 [Compound I-1-1]
efficacy in % [1]: 90% | efficacy (kill in %) [2, 4]: 100% | efficacy (kill in %) [2, 5]: 100% | log P (acid) ([3]; LC-MS in the acidic range): 0.77

CCOCn1nc(NC(=O)c2cccnc2)cc1C [Compound I-1-2]
efficacy in % [1]: 100% | efficacy (kill in %) [2, 4]: 100% | efficacy (kill in %) [2, 5]: 100% | log P (acid) ([3]; LC-MS in the acidic range): 1.1

Cc1cc(NC(=O)c2cccnc2)nn1C [Compound I-1-3]
efficacy in % [1]: 90% | efficacy (kill in %) [2, 4]: 100% | efficacy (kill in %) [2, 5]: 100% | log P (acid) ([3]; LC-MS in the acidic range): 0.63

Cc1cc(NC(=O)c2cccnc2)nn1CC(F)F [Compound I-1-4]
efficacy in % [1]: 100% | efficacy (kill in %) [2, 4]: 100% | efficacy (kill in %) [2, 5]: 100% | log P (acid) ([3]; LC-MS in the acidic range): 1.05

Cc1cc(NC(=O)c2cccnc2)nn1CCF [Compound I-1-5]
efficacy in % [1]: 90% | efficacy (kill in %) [2, 4]: 100% | efficacy (kill in %) [2, 5]: 100% | log P (acid) ([3]; LC-MS in the acidic range): 0.84

Cc1cc(NC(=O)c2cccnc2)nn1Cc1ccccn1 [Compound I-1-6]
efficacy in % [1]: 90% | efficacy (kill in %) [2, 4]: 100% | efficacy (kill in %) [2, 5]: 100% | log P (acid) ([3]; LC-MS in the acidic range): 0.88

Cc1cc(NC(=O)c2cncc(F)c2)nn1Cc1ncccn1 [Compound I-1-7, 5-Fluoro-N-[5-methyl-1-(pyrimidin-2-ylmethyl)-1H-pyrazol-3-yl]nicotinamide]
pest or weed control at 500 g/ha [1]: 90% | pest or weed control at 6 ppm [2, 4]: 100% | pest or weed control at 30 ppm [2, 5]: 100% | chromatographic logP ([3]; pH 2.7, LC-MS in the acidic range, read-out: log P (acid)): 1.11 | chromatographic logP ([3]; pH 2.7, values given in the synthesis examples and NMR lists, read-out: HPLC-MS: log P): 1.11

Cc1cc(NC(=O)c2cccnc2)nn1C(F)F [Compound I-1-8]
efficacy in % [1]: 90% | efficacy (kill in %) [2, 4]: 100% | efficacy (kill in %) [2, 5]: 100% | log P (acid) ([3]; LC-MS in the acidic range): 1.19

O=C(Nc1ccn(Cc2ncccn2)n1)c1cccnc1 [Compound I-1-9]
efficacy in % [1]: 100% | efficacy (kill in %) [2, 4]: 100% | efficacy (kill in %) [2, 5]: 100% | log P (acid) ([3]; LC-MS in the acidic range): 0.42

O=C(Nc1ccn(CC(F)(F)F)n1)c1cccnc1 [Compound I-1-10]
efficacy in % [1]: 90% | efficacy (kill in %) [2, 4]: 100% | efficacy (kill in %) [2, 5]: 100% | log P (acid) ([3]; LC-MS in the acidic range): 1.43

Cc1cc(NC(=O)c2cccnc2)nn1CC#N [Compound I-1-11]
efficacy in % [1]: 80% | efficacy (kill in %) [2, 4]: 100% | efficacy (kill in %) [2, 5]: 100% | log P (acid) ([3]; LC-MS in the acidic range): 0.7

Cc1cc(NC(=O)c2cccnc2)nn1CC(C)C [Compound I-1-12]
efficacy in % [1]: 80% | efficacy (kill in %) [2, 4]: 100% | efficacy (kill in %) [2, 5]: 100% | log P (acid) ([3]; LC-MS in the acidic range): 1.59

O=C(Nc1ccn(CC(F)F)n1)c1cccnc1 [Compound I-1-13]
efficacy in % [1]: 90% | efficacy (kill in %) [2, 4]: 100% | efficacy (kill in %) [2, 5]: 100% | log P (acid) ([3]; LC-MS in the acidic range): 0.74

Cc1cc(NC(=O)c2cccnc2)nn1Cc1nccs1 [Compound I-1-14]
efficacy in % [1]: 80% | efficacy (kill in %) [2, 4]: 100% | efficacy (kill in %) [2, 5]: 100% | log P (acid) ([3]; LC-MS in the acidic range): 1.05

Cc1cc(NC(=O)c2cccnc2)nn1Cc1cccnc1 [Compound I-1-15]
efficacy in % [1]: 90% | efficacy (kill in %) [2, 4]: 100% | efficacy (kill in %) [2, 5]: 100% | log P (acid) ([3]; LC-MS in the acidic range): 0.12

Cc1cc(N(C)C(=O)c2cccnc2)nn1C [Compound I-1-16]
efficacy in % [1]: 90% | efficacy (kill in %) [2, 5]: 100% | log P (acid) ([3]; LC-MS in the acidic range): 0.65

COC(=O)C(C)(C)NC(=O)Cn1nc(NC(=O)c2cncc(F)c2)cc1C [Compound I-1-41]
efficacy in % [1]: 90% | log P (acid) ([3]; LC-MS in the acidic range): 1.33

Cc1cccc(Cn2nc(NC(=O)c3cccnc3)cc2C)c1 [Compound I-1-50]
efficacy in % [1]: 90% | efficacy (kill in %) [2, 5]: 100%

Cc1cc(Cn2nc(NC(=O)c3cccnc3)cc2C)oc(=O)c1 [Compound I-1-154]
efficacy in % [1]: 90% | efficacy (kill in %) [2, 4]: 100% | efficacy (kill in %) [2, 5]: 100%

COCCn1nc(N(C)C(=O)c2cccnc2)cc1C [Compound I-1-179]
efficacy in % [1]: 100% | log P (acid) ([3]; LC-MS in the acidic range): 0.79

O=C(Nc1ncn(Cc2ccccc2Cl)n1)c1cccnc1 [Compound I-2-7, N-[1-(2-Chlorobenzyl)-1H-1,2,4-triazol-3-yl]nicotinamide]
pest or weed control at 500 g/ha [1]: 100% | chromatographic logP ([3]; HPLC on a reversed-phase column (C 18), pH 2.7, values given in the synthesis examples and NMR lists, read-out: HPLC-MS: log P): 1.22 | chromatographic logP ([3]; reversed-phase HPLC column (C18), pH 2.7, Table 2, compounds of the formula (I-2), acidic range pH 2.7 or pH 2.3, read-out: log P (acid)): 1.22

O=C(Nc1cnn(-c2ncccc2Br)n1)c1cccnc1 [Compound I-3-7]
efficacy (kill in %) [2, 4]: 80% | efficacy (kill in %) [2, 5]: 100% | log P (acid) [3, 6]: 1.33

Cc1nn(-c2ncccc2Cl)nc1NC(=O)c1cccnc1 [Compound I-3-9]
efficacy (kill in %) [2, 5]: 100% | log P (acid) [3, 6]: 1.24

CC(C)n1ncc(NC(=O)c2cccnc2)n1 [Compound I-3-10]
efficacy (kill in %) [2, 5]: 100% | log P (acid) [3, 6]: 1.09

O=C(Nc1cnn(-c2ccc(C(F)(F)F)cn2)n1)c1cccnc1 [Compound I-3-14, N-{2-[5-(Trifluoromethyl)pyridin-2-yl]-2H-1,2,3-triazol-4-yl}nicotinamide]
pest or weed control at 6 ppm [2, 4]: 100% | pest or weed control at 30 ppm [2, 5]: 100% | chromatographic logP ([3]; reversed-phase HPLC column (C18), pH 2.7, Table 3, HPLC on reversed-phase column (C 18), 55° C., acidic range (pH 2.7 or pH 2.3), read-out: log P (acid)): 1.91 | chromatographic logP [3, 7]: 1.91

O=C(Nc1cnn(-c2ncccc2Cl)n1)c1cccnc1 [Compound I-3-16]
efficacy (kill in %) [2, 5]: 100% | log P (acid) [3, 6]: 1.32

Cn1nnc(NC(=O)c2cccnc2)n1 [Compound I-4-2]
efficacy (kill in %) [2, 5]: 100% | log P (acid) [3, 8]: <−0.23

O=C(Nc1nnn(Cc2ccc(Cl)nc2)n1)c1cccnc1 [Compound I-4-3]
efficacy (kill in %) [2, 4]: 100% | efficacy (kill in %) [2, 5]: 100% | log P (acid) [3, 8]: 1.05

CC(NC(=O)Cn1nnc(NC(=O)c2cccnc2)n1)c1ccccc1 (centres unmarked) [Compound I-4-6, N-(2-{2-Oxo-2-[(1-phenylethyl)amino]ethyl}-2H-tetrazol-5-yl)nicotinamide]
pest or weed control at 6 ppm [2, 4]: 100% | pest or weed control at 30 ppm [2, 5]: 100% | chromatographic logP ([3]; reversed-phase HPLC column (C18), pH 2.7, Table 4, HPLC on reversed-phase column (C 18), 55° C., acidic range (pH 2.7 or pH 2.3), read-out: log P (acid)): 1.34 | chromatographic logP [3, 7]: 1.34

C=CCn1nnc(NC(=O)c2cccnc2)n1 [Compound I-4-8]
efficacy (kill in %) [2, 4]: 100% | efficacy (kill in %) [2, 5]: 100% | log P (acid) [3, 8]: 0.60
